The values below come from patent US20160193216A1 (Nimbus Iris, Inc., priority 2012, published 2016).

The subject of assay [1] is THP-1 cells. The assay is described as follows: LPS induced cytokine (TNFα and IL8) production assay in THP-1 cells. Particulars: Homo sapiens, 300 ng/mL LPS. It counts as cell-based. The method, boiled down: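 THP-1 cells (100,000/well) pre-incubated 1 hour with compound in 0.3% DMSO, then stimulated with 300 ng/mL LPS. TNFα and IL8 in supernatant measured by HTRF at 5 hours; IL8 and viability also at 16 hours.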

For assay [2], the system named is ABC DLBCL Cells. The assay is described as follows: sensitization of ABC DLBCL cells to IRAK inhibitors by BTK knockdown. The assay is classed as cell-based. The note with it: BTK knockdown (FIG. 9). An excerpt:
FIG. 8 depicts the sensitization of ABC DLBCL Cells to IRAK Inhibitors by BTK knockdown.

The test system of assay [3] is GCB DLBCL Cells. In words: sensitization of GCB DLBCL cells by BTK knockdown. It counts as cell-based. Particulars: BTK knockdown (FIG. 10).
For assay [4], the system named is collagen-induced arthritis. In words: In vivo murine collagen-induced arthritis model. The note with it: DBA mice, vs vehicle. On the procedure:
In Vivo Murine Collagen-Induced Arthritis Model Compounds of the present invention were also evaluated in mice in an in vivo efficacy model for inhibiting IRAK4-mediated arthritis. An exemplary protocol for this assay follows. Male DBA mice were immunized with collagen on day 0 and day 21 and randomly enrolled into groups upon onset of disease. […] Eight mice were enrolled per group with the exception of the naïve control group, which contained four mice. Day 1 was designated as the first treatment day, and mice were evaluated daily for clinical scores until day 11. The mice were weighed on alternating days.

In assay [5] the test system is MSU-induced gout. The assay is described as follows: In vivo murine air pouch model of human gout (MSU). The note with it: Balb/c mice, oral twice a day for six days, 10, 30 or 100 mg/kg. The method, then:
In Vivo Murine Air Pouch Model of Human Gout Compounds of the present invention were also evaluated in mice in an in vivo efficacy model for inhibiting monosodium urate (MSU) induced model of gout. An exemplary protocol for this assay follows. A sterile air pouch was created in Balb/c mice. I-67 was administered orally to the mice twice a day for six days at doses of either 10, 30 or 100 mg/kg. Following the last dose the mice were anesthetized and the air pouch was injected with a suspension of monosodium urate (MSU) to induce the inflammatory response. Four hours after the injection the air pouch exudate was collected and the number of white blood cells was measured.

The subject of assay [6] is Whole Blood. The assay is described as follows: In vitro LPS/R848-induced cytokine production assay in whole blood. The assay is classed as cell-based, human. Particulars: Homo sapiens. On the procedure: In Vitro LPS/R848/CpG-Induced Cytokine Production Assays in hPBMC or Whole Blood
Compounds of the present invention were also studied in in vitro LPS/R848/CpG-induced cytokine production assays. Exemplary protocols follow.
[…] Cells were seeded in a 96-well plate with 130 ul/well of the cell suspension according to the plate map. 9 ul of 30 mM compound solution was added into the wells in the assigned rows, then serial solutions with 4× dilutions were made. That is, add 9 uL of 100% DMSO into each of the rest wells and take 3 uL of compound solution from the one-step higher concentration solution and mix well with the DMSO. For the second compound master plate, 196 uL of the growth medium (no serum media) were added into each of the wells and 4 uL of the compound solution from the first compound master plate was added and mixed with the media. Cells were treated for 0.5 h by adding 20 uL of the compound and the control solutions prepared in the second master plate to each well according to the plate map. […] Plates were sealed with sealing films and the plates were centrifuged at 3000 rpm at 4 degrees C. for 5 min. The supernatants were transferred, and 100 ul of working Capture antibody solution was added to each well. The plates were sealed and incubated overnight at RT. IL-6, IFN-α or TNF-α detection antibody labeled with biotin: Added 100 uL of the Detection Antibody solution to each well. Covered the plate and incubated for 2 h at RT. Added 100 uL of Streptavidin-HRP solution to each well. Covered the plate and incubate for 20 min at RT in dark. Added 100 uL of Substrate Solution to each well. Incubated for 20 min at RT in dark. Added 50 uL of Stop Solution to each well. Gently tapped the plate to ensure thorough mixing. Determined the optical density of each well immediately, using a microplate reader set to 450 nm and also read at 540 nm or 570 nm for correction if wavelength correction is not available.

Read-outs that look alike come from different tables or passages of the source. Some results are limits rather than exact numbers.

As usually defined, the IC50 is the concentration needed to halve the response being measured. With `NC(=O)C[C@H]1CCc2sc3ncnc(O[C@H]4CC[C@H](N5CCOCC5)CC4)c3c21` [Compound I-67, 2-((R)-4-(((1r,4R)-4-morpholinocyclohexyl)oxy)-6,7-dihydro-5H-cyclopenta[4,5]thieno[2,3-d]pyrimidin-5-yl)acetamide], the half-inhibitory concentration (IC50) in assay [1] (read-out: IL8 production IC50) is no more than 500 nM; in assay [1] (read-out: TNFα production IC50) it was 500 to 1000 nM; in assay [6] (LPS 0.1 ug/mL, read-out: IL-6 production IC50), no more than 250 nM; in assay [6] (R848 1 uM, read-out: IFN-α production IC50) it was no less than 1000 nM; in assay [6] (R848 1 uM, read-out: TNF-α production IC50), 500 to 1000 nM. Also, the “sensitization of ABC DLBCL Cells to compound by BTK knockdown” value in assay [2] is “sensitization”. Also, the “sensitization of GCB DLBCL Cells to compound by BTK Knockdown” value in assay [3] is given as “lack of sensitization”. Also, the “Clinical scores, collagen-induced arthritis” value in assay [4] (intraperitoneally 30 mg/kg twice a day) and in assay [4] (orally 30 mg/kg twice a day) was “efficacious compared to the vehicle” each time. Besides, the “Efficacy in MSU-induced gout (white blood cell counts in air pouch exudate)” value in assay [5] is listed as “efficacious”.
